System: NOMO1
Assay: cell viability relative to DMSO control; higher = less cytotoxic
Conditions: 48 h
Outline: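 NOMO1 or SEM cells were plated at 500 cells/well and P12-Ichikawa cells at 1000 cells/well in 1536-well plates (5 μl), after each leukemia line had been adapted for at least four passages in each medium. Pin dosing delivered library compounds in DMSO at 11 threefold concentrations, 47 μM to 0.79 nM. CellTiter-Glo One luminescence was read after 48 h at 37°C. Viability is reported as a per-plate percentage of DMSO wells, with cell-free wells as background.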

[1] = HPLM + 10% dialyzed FBS, 0.000781 µM
[2] = HPLM + 10% dialyzed FBS, 0.00234 µM
[3] = HPLM + 10% dialyzed FBS, 0.00702 µM
[4] = HPLM + 10% dialyzed FBS, 0.0211 µM
[5] = HPLM + 10% dialyzed FBS, 0.0632 µM
[6] = HPLM + 10% dialyzed FBS, 0.19 µM
[7] = HPLM + 10% dialyzed FBS, 0.569 µM
[8] = HPLM + 10% dialyzed FBS, 1.71 µM
[9] = HPLM + 10% dialyzed FBS, 5.12 µM
[10] = HPLM + 10% dialyzed FBS, 15.4 µM
[11] = HPLM + 10% dialyzed FBS, 46.1 µM
[12] = RPMI 5 mM glucose + 10% FBS, 0.000781 µM
[13] = RPMI 5 mM glucose + 10% FBS, 0.00234 µM
[14] = RPMI 5 mM glucose + 10% FBS, 0.00702 µM
[15] = RPMI 5 mM glucose + 10% FBS, 0.0211 µM
[16] = RPMI 5 mM glucose + 10% FBS, 0.0632 µM
[17] = RPMI 5 mM glucose + 10% FBS, 0.19 µM
[18] = RPMI 5 mM glucose + 10% FBS, 0.569 µM
[19] = RPMI 5 mM glucose + 10% FBS, 1.71 µM
[20] = RPMI 5 mM glucose + 10% FBS, 5.12 µM
[21] = RPMI 5 mM glucose + 10% FBS, 15.4 µM
[22] = RPMI 5 mM glucose + 10% FBS, 46.1 µM
[23] = RPMI 5 mM glucose + 10% dialyzed FBS, 0.000781 µM
[24] = RPMI 5 mM glucose + 10% dialyzed FBS, 0.00234 µM
[25] = RPMI 5 mM glucose + 10% dialyzed FBS, 0.00702 µM
[26] = RPMI 5 mM glucose + 10% dialyzed FBS, 0.0211 µM
[27] = RPMI 5 mM glucose + 10% dialyzed FBS, 0.0632 µM
[28] = RPMI 5 mM glucose + 10% dialyzed FBS, 0.19 µM
[29] = RPMI 5 mM glucose + 10% dialyzed FBS, 0.569 µM
[30] = RPMI 5 mM glucose + 10% dialyzed FBS, 1.71 µM
[31] = RPMI 5 mM glucose + 10% dialyzed FBS, 5.12 µM
[32] = RPMI 5 mM glucose + 10% dialyzed FBS, 15.4 µM
[33] = RPMI 5 mM glucose + 10% dialyzed FBS, 46.1 µM

SMILES | cell viability [1] | cell viability [2] | cell viability [3] | cell viability [4] | cell viability [5] | cell viability [6] | cell viability [7] | cell viability [8] | cell viability [9] | cell viability [10] | cell viability [11] | cell viability [12] | cell viability [13] | cell viability [14] | cell viability [15] | cell viability [16] | cell viability [17] | cell viability [18] | cell viability [19] | cell viability [20] | cell viability [21] | cell viability [22] | cell viability [23] | cell viability [24] | cell viability [25] | cell viability [26] | cell viability [27] | cell viability [28] | cell viability [29] | cell viability [30] | cell viability [31] | cell viability [32] | cell viability [33]
Cc1noc(-c2ccc(CSCCC(=O)O)cc2)c1NC(=O)OC(C)c1ccccc1Cl (configuration not stated) | 92.3% | 89.9% | 105% | 104% | 99.8% | 97.1% | 95.6% | 97% | 113% | 111% | 95.7% | 85.7% | 97.5% | 99% | 89.6% | 109% | 95.4% | 102% | 100% | 95.5% | 110% | 105% | 79% | 99.1% | 87.3% | 86.3% | 99.1% | 92.2% | 99.5% | 95.8% | 100% | 104% | 107%
COc1cccc2c1[C@]13CCN(CC4CC4)[C@H](C2)[C@]1(OC)CCC(=O)C3 | 89.7% | 96.5% | 127% | 121% | 118% | 119% | 116% | 129% | 122% | 82.2% | 111% | 101% | 111% | 103% | 124% | 126% | 117% | 132% | 125% | 133% | 110% | 124% | 106% | 108% | 106% | 111% | 110% | 116% | 109% | 111% | 105% | 106% | 105%
C[C@H]1COC/2=C1/C(=O)C(=O)C3=C4CCCC(C)(C)C4=CC=C23 | 114% | 131% | 121% | 116% | 154% | 146% | 137% | 163% | 158% | 132% | 134% | – | – | – | – | – | – | – | – | – | – | – | 123% | 129% | 120% | 136% | 135% | 129% | 148% | 156% | 141% | 134% | 151%
Cc1c(C)c2c(c(C)c1O)CCC(C)(COc1ccc(CC3SC(=O)NC3=O)cc1)O2 (configuration not stated) | 122% | 123% | 114% | 133% | 125% | 126% | 142% | 138% | 132% | 116% | 125% | – | – | – | – | – | – | – | – | – | – | – | – | – | – | – | – | – | – | – | – | – | –
CC(C)Oc1ccc(C(=O)N[C@H](CNC(=O)CN(C)C)Cc2ccc(-c3cn4cccc([C@H](C)O)c4n3)cc2)cc1Cl | 123% | 131% | 108% | 123% | 103% | 99.8% | 113% | 32.6% | 33.1% | 23.6% | 32.5% | 104% | 107% | 112% | 113% | 113% | 98.5% | 87% | 24.8% | 19.7% | 14.6% | 21.6% | 107% | 124% | 112% | 125% | 113% | 109% | 100% | 39.4% | 25.6% | 20.1% | 24.8%
C1CCN2C[C@H]3C[C@H](\C=C/4CCCN[C@@H]34)[C@H]2C1 | 96.5% | 113% | 113% | 133% | 96.1% | 122% | 137% | 107% | 115% | 99.5% | 92.8% | 105% | 105% | 108% | 104% | 98.7% | 108% | 104% | 105% | 108% | 63.7% | 55% | 107% | 108% | 114% | 121% | 108% | 108% | 120% | 111% | 120% | 78.6% | 64.2%
Nc1ncnc2c1nc(Cl)n2[C@@H]1O[C@H](CO)[C@@H](O)[C@H]1O | – | – | – | – | – | – | – | – | – | – | – | 116% | 123% | 110% | 120% | 120% | 113% | 106% | 110% | 118% | 108% | 14.5% | – | – | – | – | – | – | – | – | – | – | –
Nc1nc(Cl)nc2c1ncn2[C@@H]1O[C@H](CO)[C@@H](O)[C@@H]1F | 41.7% | 70.8% | 43.4% | 33.3% | 26.6% | 18.2% | 24.7% | 23.9% | 21.2% | 18.1% | 18.6% | 77.2% | 131% | 49% | 27.2% | 20% | 21.7% | 16.9% | 16.7% | 18.4% | 16% | 13.5% | 38.9% | 63.2% | 29.8% | 25.7% | 23% | 23.6% | 19.9% | 16.4% | 14.2% | 19.7% | 17.1%
C#CCN[C@@H]1CCc2ccccc21.CS(=O)(=O)O | 107% | 93.4% | 108% | 109% | 91.7% | 90.3% | 96% | 82.6% | 93.9% | 71.3% | 43.2% | 89.6% | 97% | 92.7% | 87.9% | 94% | 88.1% | 91.1% | 84.2% | 84.2% | 96.5% | 67.2% | 86.1% | 99.9% | 105% | 99.8% | 106% | 101% | 93.7% | 107% | 85.1% | 90.6% | 81.8%

— the supplement of paper PMC11451515
